Experimental findings from patent US20230063230A1, “NURR1 RECEPTOR MODULATORS” (priority 2019, published 2023) are described below.

Test [1] concerns the target T1, Nurr1 LBD (Homo sapiens, UniProt P43354). In words: Surface plasmon resonance (SPR) assay. It is filed as binding. Here is the method:
Surface Plasmon Resonance Assays. Data were collected using Biacore T200 (GE) instrument at a flow rate of 30 μL/min and at a temperature of 25° C. The running buffer was 25 mM HEPES, pH 7.4, 150 mM NaCl, 0.05% Surfactant Tween 20, and 2% DMSO. The biotinylated Nurr1 LBD was immobilized on a sensor chip SA (GE Healthcare Life Sciences; product number 29104992) or at 6000-7000 RU, or a CAP chip (GE Healthcare Life Sciences; product number 28920234) at 1500-2000 RU. Data collection was performed with kinetic titration mode. Analytes dilutions were carried out starting from DMSO stocks (10 mM). Analytes dissolved in DMSO were added to 1.02x running buffer without DMSO to yield a final DMSO concentration of 2%. When using CAP chip, surface regeneration was performed between each titration curve using 6 M guanidine.HCl+0.25 M NaOH regeneration solution followed by re-immobilization of Nurr1 (as described in the manufacturer's regeneration protocol). Data processing included double referencing (i.e., reference flow cell and buffer subtracted using a buffer injection of appropriate contact time for the given injection). Solvent correction was performed using a standard curve in a range of 1.8-2.3% DMSO.

The target in test [2] is T2, Nurr1 LBD fused to Gal4 DBD (Homo sapiens, UniProt P43354).
T2 construct: expressed in transfected cells; host or cells: SK-N-BE(2)C cells (ATCC CRL-2268)
T2 sequence (P43354 328-598): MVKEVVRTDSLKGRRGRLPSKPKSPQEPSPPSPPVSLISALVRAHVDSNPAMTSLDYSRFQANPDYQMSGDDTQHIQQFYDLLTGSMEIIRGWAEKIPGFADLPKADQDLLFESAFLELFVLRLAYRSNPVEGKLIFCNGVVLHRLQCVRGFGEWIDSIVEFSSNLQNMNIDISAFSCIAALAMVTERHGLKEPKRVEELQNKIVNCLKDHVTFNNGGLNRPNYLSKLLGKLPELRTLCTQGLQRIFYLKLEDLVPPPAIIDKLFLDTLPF
In words: Luciferase reporter assay. Type of test: cell-based. Here is the method:
In particular, direct binding to the Nurr1 LBD in vitro was measured using microscale thermophoresis (MST) and surface plasmon resonance (SPR), and efficacy in cells was measured using a lucifierase reporter assay (Nurr1 LBD fused to Gal4 DBD, measuring effect on luciferase activity) and target gene transcription assays (full length Nurr1, measuring mRNA levels of specific Nurr1 target genes). These assays pointed to a subset of compounds that bind directly to the Nurr1 LBD (by MST and/or SPR) and produce >1.5-fold changes in Nurr1 activity in cells (by Luc and/or TGT assays) (Table 1, Table 2).
Luciferase Reporter Assays. pBIND—Nurr1 is generated by cloning Nurr1 LBD (a.a. 328-598 of human Nurr1) into pBIND vector (Promega E2440). The pBIND vector also contains a Renilla luciferase gene under the control of the SV40 Promoter that can be used to normalize the transfection efficiency. The firefly luciferase reporter pG5-Luc vector (Promega E2440) contains 5 repeats of GAL4 UAS (upstream activation sequence) upstream of luciferase gene. SK—N— BE(2)C cells (ATCC CRL-2268) were transiently transfected with pBIND—Nurr1 and pG5-Luc by FuGENE HD (Promega, E2311) in 96-well-plate with the seeding density of 200,000 cells/mL. […] After 18 hours, the luminescence of Firefly and Renilla luciferase were measured by Dual Luciferase Reporter Assay System (Promega E1960).

Test [3] deals with T1, Nurr1 LBD. As to the kind of experiment: Differential scanning fluorimetry (DSF). It is filed as binding. An excerpt:
(§1) Dopamine is broken down inside the neurons that produce it, generating oxygen free-radicals and other potentially damaging molecules (53). Among the reactive metabolites is 5,6-dihydroxyindole (DHI), a compound that undergoes spontaneous oxidation to a reactive quinone, which oligomerizes to form a polymer (neuromelanin) of unknown function. This polymer accounts for the dark appearance of nigrostriatal neurons in the normal adult CNS (54,55). Dopamine is also a central player in stress and addiction (3). It is clear that dopamine levels need to be tightly regulated in the CNS. Nurr1 controls all the genes required for dopamine synthesis, but its regulation is poorly understood as the receptor lacks both the canonical NR ligand binding pocket and the classic NR co-regulator binding surface (33). We postulated that Nurr1 might be regulated by dopamine itself, or one of its metabolites, and investigated this possibility using a combination of biophysical and structural techniques. […] Identifying stable analogs of DHI will enable more detailed studies of this intriguing biology.

For a further test, the system named is Nurr1 target genes. As to the kind of experiment: Transcription of Nurr1 target genes in live zebrafish. Type of test: in vivo.
Source text: as §1

The target of test [4] is T3, Nurr1 ligand binding domain (Homo sapiens, UniProt P43354). As to the kind of experiment: Crystal structures of ligands covalently bound to Nurr1. Conditions: crystal structure, Cys566.
T3 sequence (P43354 360-595 limits assumed): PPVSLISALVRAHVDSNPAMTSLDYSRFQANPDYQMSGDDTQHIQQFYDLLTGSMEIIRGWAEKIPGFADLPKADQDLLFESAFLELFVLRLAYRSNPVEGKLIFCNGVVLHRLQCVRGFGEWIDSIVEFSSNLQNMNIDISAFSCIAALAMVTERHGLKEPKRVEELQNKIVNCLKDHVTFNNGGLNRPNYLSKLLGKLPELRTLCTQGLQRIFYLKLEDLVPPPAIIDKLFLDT
Source text: First, we used the Nurr1 ligand binding domain (LBD) and a disulfide-trapping screen to identify 50 compounds that conjugate directly to Nurr1, undergoing a disulfide exchange reaction with Cys566.
Test [5] concerns the target T3, Nurr1 ligand binding domain. As to the kind of experiment: Microscale thermophoresis (MST) binding assay. The conditions noted are these: measured by microscale thermophoresis. The method, then:
Microscale thermophoresis (MST) assays. Data were collected using the Nanotemper Monolith NT.115 at a temperature of 25° C. The MST buffer used in each experiment was 25 mM HEPES (Sigma Aldrich), pH 7.4, 150 mM NaCl (Alfa Aesar), and 0.02% Pluronic (Sigma Aldrich). All samples were prepared using Protein LoBind tubes or deepwell plates (Eppendorf). The His-tagged Nurr1 was labeled with RED-tris-NTA dye (NT-647) according to the kit's protocol (Nanotemper). Dilutions of each ligand were carried out starting from DMSO stocks of 10 mM in DMSO. The analyte solutions in DMSO were added to aliquots of MST buffer to yield a DMSO concentration of 4%.
Two types of experiments were performed: endpoint and binding affinity assays. For the endpoint assays, equal amounts of the ligand solution and labeled Nurr1 were mixed to yield the final concentrations: 50 nM Nurr1, 25 nM RED-tris-NTA dye, 2% DMSO, and either 25 μM or 100 μM of the desired ligand in the MST buffer. […]
The Monolith NT.115 settings for all samples were 40% excitation power and 40% MST power. The initial fluorescence was recorded for 3 seconds and the thermophoresis fluorescence response was recorded for 20 seconds. […] Screening Analysis software (Nanotemper) was used to normalize the fluorescent response signals to the sample's initial fluorescence. […]

Test [6] has as its system Nurr1 target genes in MN9D cells. In words: MN9D target gene transcription assay. It is filed as cell-based. The conditions noted are these: gene expression normalized to Hprt. The method, then: MN9D Assays. MN9Dtet-on cells were treated with 10 μM of each compound or DMSO (vehicle control) for 6 to 24 hrs. Total RNAs were isolated using Quick-RNA miniprep Plus (ZYMO Research, cat#: R^1058), and were subsequently reverse transcribed using High Capacity cDNA Reverse Transcription kit (Applied Biosystems, cat#: 4368814). SYBR Green quantitative real-time PCR analysis was performed using CFX96 Real Time system (BioRad). The following primer pairs were used for qPCR: Nurr1; 5′-[…]-3′ (SEQ ID NO:5) and 5′-[…]-3′ (SEQ ID NO:6), Pitx3; 5′-GCAACTGGCCGCCCAAGG-3′ (SEQ ID NO:7) and 5′-AGGCCCCACGTTGACCGA-3′ (SEQ ID NO:8), VMAT2; 5′-[…]-3′ (SEQ ID NO:9) and 5′-[…]-3′ (SEQ ID NO:10), TH; 5′-[…]-3′ (SEQ ID NO:11) and 5′-[…]-3′ (SEQ ID NO:12), HPRT; 5′-TGGGAGGCCATCACATTGT-3′ (SEQ ID NO:13) and 5′-[…]-3′ (SEQ ID NO:14). The levels of gene expression were normalized to the level of housekeeping gene (HPRT) expression.

In test [7] the target is T4, Nurr1 (Homo sapiens, UniProt P43354). In words: Binding MST.
Target sequence in this assay (P43354 360-595 limits assumed): as above
In test [8] the target is T4, Nurr1. In words: Binding SPR.
Target sequence in this assay (P43354 360-595 limits assumed): as above
The subject of the next test is Vmat2 in MN9D. As to the kind of experiment: cells. It is filed as cell-based. The conditions noted are these: cpds tested at 10 μM, analogs of compound 87, read-out: qPCR MN9D Vmat2.
Another test has as its system TH in SHSY5Y. As to the kind of experiment: qPCR SHSY5Y TH. It is filed as cell-based. Conditions: Homo sapiens, SH-SY5Y, cpds tested at 10 μM.
For test [9], the target named is T4, Nurr1. In words: Luciferase cellular assay. Type of test: cell-based. The conditions noted are these: cpds tested at 10 μM; analogs of compound 87. The arrangement: expressed in transfected cells; host or cells: SK-N-BE(2)C cells (ATCC CRL-2268).
Target sequence in this assay (P43354 328-598): as the sequence (P43354 328-598) above
A further test deals with Pitx3 in MN9D. In words: qPCR MN9D Pitx3. Conditions: cpds tested at 10 μM, analogs of compound 87. It is filed as cell-based.
The next test has as its system Nurr1 in MN9D. As to the kind of experiment: qPCR MN9D Nurr1. It is filed as cell-based. The conditions noted are these: cpds tested at 10 μM, analogs of compound 87.
Another test relates to Th in MN9D. In words: qPCR MN9D Th. Type of test: cell-based. The conditions noted are these: cpds tested at 10 μM, analogs of compound 87.

T1 sequence (P43354 360-595 limits assumed): as the sequence (P43354 360-595 limits assumed) above

Take `Oc1cc2cc[nH]c2cc1O` [DHI, 5,6-dihydroxyindole]: on Nurr1 LBD [1], the Off-rate result is “very slow off-rate”. The Kd on Nurr1 LBD [1] (read-out: Kd for binding to Nurr1) was found to be 5 µM. Further, the “Nurr1 activity in the reporter assay” value in [2] was “stimulating Nurr1 activity”. The “Stabilization of the Nurr1 LBD, melting temperature” value at Nurr1 LBD [3] is “increasing the melting temperature by one degree”. Besides, in the test with Nurr1 target genes (acute exposure (6 h, data not shown)), the “Expression of VMAT” value is on record as “drives the expression”. The “Transcription of Nurr1 target genes in live zebrafish” value with Nurr1 target genes (in vivo) is listed as “driving transcription of Nurr1 target genes”. Further, the “Expression of TH” value with Nurr1 target genes (longer exposure (24 h)) is given as “drives the expression”. Moreover, the “Covalent binding to Nurr1” value in test [4] was “reversible covalent adduct with Cys566”.

Take `O=C(COc1ccc(Cl)c(Cl)c1)NCCS` [SP 85, 2-(3,4-dichlorophenoxy)-N-(2-mercaptoethyl)acetamide]: the “Binding to the Nurr1 ligand binding domain, affinity” value in test [5] was “high nanomolar affinity”. Besides, in test [6], the “Transcription of Nurr1 target genes in MN9D cells” value is recorded as “stimulate the transcription of Nurr1 target genes”. For the same compound, the “Binding MST” value at Nurr1 [7] (analogs of compound 85) is reported as “+++”. Moreover, the “Binding SPR” value at Nurr1 [8] (analogs of compound 85) is reported as “+”.

As for `CC(C)(NC(=O)c1cc(Cl)cc(Cl)c1)c1cn(CCS)nn1` [SP 87, 3,5-dichloro-N-(2-(1-(2-mercaptoethyl)-1H-1,2,3-triazol-4-yl)propan-2-yl)benzamide], the “Binding to the Nurr1 ligand binding domain, affinity” value in [5] is “high nanomolar affinity”. Besides, the “Transcription of Nurr1 target genes in MN9D cells” value in test [6] was “stimulate the transcription of Nurr1 target genes”. Besides, the “Binding MST” value at Nurr1 [7] (analogs of compound 87) is listed as “+++”. For the same compound, the “Binding SPR” value on Nurr1 [8] (analogs of compound 87) is recorded as “+”. Also, the fold induction at 10 µM in the test with Vmat2 in MN9D is > 4; in the test on TH in SHSY5Y, > 1.5.

Regarding `CC(C)(NC(=O)c1cc(Br)cc(Br)c1)c1cn(CCS)nn1` [SP 156, 3,5-dibromo-N-(2-(1-(2-mercaptoethyl)-1H-1,2,3-triazol-4-yl)propan-2-yl)benzamide], on Nurr1 [7] (analogs of compound 87), the “Binding MST” value is “++”. Further, the “Binding SPR” value on Nurr1 [8] (analogs of compound 87) is recorded as “++”. In addition, in the test with TH in SHSY5Y, the fold induction at 10 µM is > 4. The Luciferase result on Nurr1 [9] was “+++ (+++ =>4−fold)”.

With `CC(=O)SCCn1cc(C(C)(C)NC(=O)c2ccc(Cl)c(Cl)c2)nn1` [SP 171, S-2-(4-(2-(3,4-dichlorobenzamido)propan-2-yl)-1H-1,2,3-triazol-1-yl)ethyl ethanethioate], the fold induction at 10 µM in the test on Pitx3 in MN9D is > 4.

With `CC(=O)SCCn1cc(C(C)(C)NC(=O)c2cc(Br)cc(Br)c2)nn1` [SP 173, S-2-(4-(2-(3,5-dibromobenzamido)propan-2-yl)-1H-1,2,3-triazol-1-yl)ethyl ethanethioate], in the test with TH in SHSY5Y, the fold induction at 10 µM was > 1.5. Moreover, on Nurr1 [9], the Luciferase result was “+++ (+++ =>4−fold)”.

For the compound `CC(=O)SCCn1cc(C(C)(C)NC(=O)c2ccc3ocnc3c2)nn1` [SP 195, S-2-(4-(2-(benzo[d]oxazole-5-carboxamido)propan-2-yl)-1H-1,2,3-triazol-1-yl)ethyl ethanethioate], the fold induction at 10 µM in the test with Pitx3 in MN9D and in the test on Nurr1 in MN9D was > 1.5 in each case.

On to `CC(=O)SCCn1cc(C(C)(C)NC(=O)c2cccc(C#N)c2)nn1` [SP 196, S-2-(4-(2-(3-cyanobenzamido)propan-2-yl)-1H-1,2,3-triazol-1-yl)ethyl ethanethioate], for which the figures for the fold induction at 10 µM in the test on Nurr1 in MN9D and with Th in MN9D were > 4 and > 1.5, respectively.

On to `NCCc1ccc(O)c(O)c1` [dopamine], for which, at Nurr1 LBD [3], the “Stabilization of the Nurr1 LBD, melting temperature” value was “not”.
